Laboratory results as given in the supplement of paper PMC10477900.

Experiments:
HCT116 [1] = details: 72 h
Protocol: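 HCT116 control and MTA1-KO (CRISPR) HCT116 cells were seeded in 384-well plates (800 cells/well), treated 16 h later with 237 metabolism-related anticancer drugs at five doses (10 uM, 2 uM, 400 nM, 80 nM, 16 nM) for 72 h, two replicates; viability by CCK8. Values are % inhibition of viability relative to untreated cells, plus fitted IC50.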

HCT116 [2] = assay: viability inhibition vs untreated; higher = more cytotoxic; details: 72 h

## CC(C)c1nc(N(C)S(C)(=O)=O)nc(-c2ccc(F)cc2)c1/C=C/[C@@H](O)C[C@@H](O)CC(=O)O [Rosuvastatin]
HCT116 [1]; genotype: MTA1-KO
  IC50: > 10 µM
HCT116 [1]; genotype: control
  IC50: > 10 µM
HCT116 [2]; genotype: MTA1-KO, 16 nM
  viability inhibition: -4.22%
HCT116 [2]; genotype: MTA1-KO, 80 nM
  viability inhibition: -8.46%
HCT116 [2]; genotype: MTA1-KO, 400 nM
  viability inhibition: -10.3%
HCT116 [2]; genotype: MTA1-KO, 2000 nM
  viability inhibition: -11.2%
HCT116 [2]; genotype: MTA1-KO, 10000 nM
  viability inhibition: -10.9%
HCT116 [2]; genotype: control, 16 nM
  viability inhibition: -1.14%
HCT116 [2]; genotype: control, 80 nM
  viability inhibition: -8.14%
HCT116 [2]; genotype: control, 400 nM
  viability inhibition: 4.9%
HCT116 [2]; genotype: control, 2000 nM
  viability inhibition: -10.3%
HCT116 [2]; genotype: control, 10000 nM
  viability inhibition: 31.2%

## C=C(C)[C@H]1Cc2c(ccc3c2O[C@@H]2COc4cc(OC)c(OC)cc4[C@@H]2C3=O)O1 [Rotenone]
HCT116 [1]; genotype: MTA1-KO
  IC50: 0.0743 µM
HCT116 [1]; genotype: control
  IC50: < 0.016 µM
HCT116 [2]; genotype: MTA1-KO, 16 nM
  viability inhibition: 16.6%
HCT116 [2]; genotype: MTA1-KO, 80 nM
  viability inhibition: 34.1%
HCT116 [2]; genotype: MTA1-KO, 400 nM
  viability inhibition: 35.3%
HCT116 [2]; genotype: MTA1-KO, 2000 nM
  viability inhibition: 43.4%
HCT116 [2]; genotype: MTA1-KO, 10000 nM
  viability inhibition: 51.6%
HCT116 [2]; genotype: control, 16 nM
  viability inhibition: 63.1%
HCT116 [2]; genotype: control, 80 nM
  viability inhibition: 57.1%
HCT116 [2]; genotype: control, 400 nM
  viability inhibition: 46.9%
HCT116 [2]; genotype: control, 2000 nM
  viability inhibition: 45.4%
HCT116 [2]; genotype: control, 10000 nM
  viability inhibition: 65.4%

## O=c1cc(N2CCOCC2)oc2c(-c3ccc4c(c3)OCCO4)csc12 [SF2523]
HCT116 [1]; genotype: MTA1-KO
  IC50: 8.68 µM
HCT116 [1]; genotype: control
  IC50: 9.37 µM
HCT116 [2]; genotype: MTA1-KO, 16 nM
  viability inhibition: 7.25%
HCT116 [2]; genotype: MTA1-KO, 80 nM
  viability inhibition: -7.41%
HCT116 [2]; genotype: MTA1-KO, 400 nM
  viability inhibition: -9.52%
HCT116 [2]; genotype: MTA1-KO, 2000 nM
  viability inhibition: -14.8%
HCT116 [2]; genotype: MTA1-KO, 10000 nM
  viability inhibition: 68.1%
HCT116 [2]; genotype: control, 16 nM
  viability inhibition: -25.2%
HCT116 [2]; genotype: control, 80 nM
  viability inhibition: -16.4%
HCT116 [2]; genotype: control, 400 nM
  viability inhibition: -24%
HCT116 [2]; genotype: control, 2000 nM
  viability inhibition: -23.1%
HCT116 [2]; genotype: control, 10000 nM
  viability inhibition: 55.5%

## C/C(=N\NC(=O)c1cccc(S(=O)(=O)N2CCOCC2)c1)c1cc(Cl)ccc1O [SP2509]
HCT116 [1]; genotype: MTA1-KO
  IC50: 0.69 µM
HCT116 [1]; genotype: control
  IC50: 0.493 µM
HCT116 [2]; genotype: MTA1-KO, 16 nM
  viability inhibition: 13%
HCT116 [2]; genotype: MTA1-KO, 80 nM
  viability inhibition: 7.45%
HCT116 [2]; genotype: MTA1-KO, 400 nM
  viability inhibition: 18%
HCT116 [2]; genotype: MTA1-KO, 2000 nM
  viability inhibition: 98.5%
HCT116 [2]; genotype: MTA1-KO, 10000 nM
  viability inhibition: 99.6%
HCT116 [2]; genotype: control, 16 nM
  viability inhibition: -5.87%
HCT116 [2]; genotype: control, 80 nM
  viability inhibition: -2.4%
HCT116 [2]; genotype: control, 400 nM
  viability inhibition: 14.8%
HCT116 [2]; genotype: control, 2000 nM
  viability inhibition: 104%
HCT116 [2]; genotype: control, 10000 nM
  viability inhibition: 103%

## CC(C)(C)c1ccc(S(=O)(=O)NCc2ccc(C(=O)Nc3cccnc3)cc2)cc1 [STF31]
HCT116 [1]; genotype: MTA1-KO
  IC50: > 10 µM
HCT116 [1]; genotype: control
  IC50: 1.33 µM
HCT116 [2]; genotype: MTA1-KO, 16 nM
  viability inhibition: 0.724%
HCT116 [2]; genotype: MTA1-KO, 80 nM
  viability inhibition: -19.9%
HCT116 [2]; genotype: MTA1-KO, 400 nM
  viability inhibition: -8.95%
HCT116 [2]; genotype: MTA1-KO, 2000 nM
  viability inhibition: -5.53%
HCT116 [2]; genotype: MTA1-KO, 10000 nM
  viability inhibition: 6.98%
HCT116 [2]; genotype: control, 16 nM
  viability inhibition: 18.1%
HCT116 [2]; genotype: control, 80 nM
  viability inhibition: 6.81%
HCT116 [2]; genotype: control, 400 nM
  viability inhibition: 42.8%
HCT116 [2]; genotype: control, 2000 nM
  viability inhibition: 43.4%
HCT116 [2]; genotype: control, 10000 nM
  viability inhibition: 74.1%

## c1ccc2c(CCNc3ccc(Nc4ccncc4)cc3)c[nH]c2c1 [Serdemetan]
HCT116 [1]; genotype: MTA1-KO
  IC50: 1.66 µM
HCT116 [1]; genotype: control
  IC50: 2.48 µM
HCT116 [2]; genotype: MTA1-KO, 16 nM
  viability inhibition: 10.9%
HCT116 [2]; genotype: MTA1-KO, 80 nM
  viability inhibition: 7.55%
HCT116 [2]; genotype: MTA1-KO, 400 nM
  viability inhibition: 13.6%
HCT116 [2]; genotype: MTA1-KO, 2000 nM
  viability inhibition: 65.6%
HCT116 [2]; genotype: MTA1-KO, 10000 nM
  viability inhibition: 107%
HCT116 [2]; genotype: control, 16 nM
  viability inhibition: 10.5%
HCT116 [2]; genotype: control, 80 nM
  viability inhibition: 10.9%
HCT116 [2]; genotype: control, 400 nM
  viability inhibition: 5.2%
HCT116 [2]; genotype: control, 2000 nM
  viability inhibition: 5.93%
HCT116 [2]; genotype: control, 10000 nM
  viability inhibition: 85.1%

## Oc1ccc2c(c1)OCO2 [Sesamol]
HCT116 [1]; genotype: MTA1-KO
  IC50: > 10 µM
HCT116 [1]; genotype: control
  IC50: > 10 µM
HCT116 [2]; genotype: MTA1-KO, 16 nM
  viability inhibition: -15.3%
HCT116 [2]; genotype: MTA1-KO, 80 nM
  viability inhibition: -20.6%
HCT116 [2]; genotype: MTA1-KO, 400 nM
  viability inhibition: -20.7%
HCT116 [2]; genotype: MTA1-KO, 2000 nM
  viability inhibition: -23.5%
HCT116 [2]; genotype: MTA1-KO, 10000 nM
  viability inhibition: -9.02%
HCT116 [2]; genotype: control, 16 nM
  viability inhibition: 12.7%
HCT116 [2]; genotype: control, 80 nM
  viability inhibition: -1.76%
HCT116 [2]; genotype: control, 400 nM
  viability inhibition: -11.9%
HCT116 [2]; genotype: control, 2000 nM
  viability inhibition: -12.6%
HCT116 [2]; genotype: control, 10000 nM
  viability inhibition: -2.94%

## O=C(O)c1ccc2c(c1)nc(Nc1cccc(Cl)c1)c1ccncc12 [Silmitasertib]
HCT116 [1]; genotype: MTA1-KO
  IC50: > 10 µM
HCT116 [1]; genotype: control
  IC50: > 10 µM
HCT116 [2]; genotype: MTA1-KO, 16 nM
  viability inhibition: -17.2%
HCT116 [2]; genotype: MTA1-KO, 80 nM
  viability inhibition: -23.7%
HCT116 [2]; genotype: MTA1-KO, 400 nM
  viability inhibition: -18.2%
HCT116 [2]; genotype: MTA1-KO, 2000 nM
  viability inhibition: -24.2%
HCT116 [2]; genotype: MTA1-KO, 10000 nM
  viability inhibition: -22%
HCT116 [2]; genotype: control, 16 nM
  viability inhibition: 7.6%
HCT116 [2]; genotype: control, 80 nM
  viability inhibition: -9.55%
HCT116 [2]; genotype: control, 400 nM
  viability inhibition: -4.38%
HCT116 [2]; genotype: control, 2000 nM
  viability inhibition: -8.94%
HCT116 [2]; genotype: control, 10000 nM
  viability inhibition: -1.95%

## O=C([O-])C(Cl)Cl.[Na+] [Sodium Dichloroacetate]
HCT116 [1]; genotype: MTA1-KO
  IC50: > 10 µM
HCT116 [1]; genotype: control
  IC50: > 10 µM
HCT116 [2]; genotype: MTA1-KO, 16 nM
  viability inhibition: -5.96%
HCT116 [2]; genotype: MTA1-KO, 80 nM
  viability inhibition: -6.01%
HCT116 [2]; genotype: MTA1-KO, 400 nM
  viability inhibition: -16.4%
HCT116 [2]; genotype: MTA1-KO, 2000 nM
  viability inhibition: -11.2%
HCT116 [2]; genotype: MTA1-KO, 10000 nM
  viability inhibition: 11.1%
HCT116 [2]; genotype: control, 16 nM
  viability inhibition: -15.2%
HCT116 [2]; genotype: control, 80 nM
  viability inhibition: -8.93%
HCT116 [2]; genotype: control, 400 nM
  viability inhibition: -10.2%
HCT116 [2]; genotype: control, 2000 nM
  viability inhibition: -22.3%
HCT116 [2]; genotype: control, 10000 nM
  viability inhibition: -2.12%
